In ChEMBL document CHEMBL1201862, “PubChem BioAssay data set” (2004) one finds AC50, EC50 and IC50 data, which are given here for six molecules.

The AC50 is the midpoint of the concentration-response curve, whichever way the signal moves. The EC50 is the concentration that produces a half-maximal response. In general, IC50 refers to the concentration needed to halve the response being measured.

The target in one assay is Trypsin (Sus scrofa, UniProt P00761). As to the kind of experiment: porcine trypsin inhibitors, dose response, selectivity assay for Rce1 protease inhibitor project, biochemical, quenched peptide fluorescence, cherry-pick (AID 488789).
The target of the next assay is CAAX prenyl protease 2 (Homo sapiens, UniProt Q9Y256). As to the kind of experiment: human Rce1 protease inhibitors, dose response, biochemical, yeast membranes, quenched-peptide fluorescence, cherry-pick (AID 588849).
Assay [1] has as its target Beta-2 adrenergic receptor (Homo sapiens, UniProt P07550). Briefly: beta2AR agonists driving receptor internalization, dose response, cell-based, FAP fluorogen, flow cytometry, cherry pick 1 (AID 588763). In kind it is functional. (In general: In flow cytometry, cells or beads pass a laser one at a time.)
For a further assay, the system named is Streptococcus. Briefly: Group A Streptococcus viability loss, dose response, counter-screen for streptokinase expression inhibitor project, luminescence, BacTiterGlo (AID 1915).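 Further: potency for reduction of bacterial viability or growth.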 The class given is functional, organism-based. For orientation: The purpose of a counterscreen is to sort out artefacts and off-target activity.
In the next assay the target is T1, Streptokinase A (Streptococcus pyogenes serotype M1, UniProt P10520).
T1 sequence (P10520 whole entry): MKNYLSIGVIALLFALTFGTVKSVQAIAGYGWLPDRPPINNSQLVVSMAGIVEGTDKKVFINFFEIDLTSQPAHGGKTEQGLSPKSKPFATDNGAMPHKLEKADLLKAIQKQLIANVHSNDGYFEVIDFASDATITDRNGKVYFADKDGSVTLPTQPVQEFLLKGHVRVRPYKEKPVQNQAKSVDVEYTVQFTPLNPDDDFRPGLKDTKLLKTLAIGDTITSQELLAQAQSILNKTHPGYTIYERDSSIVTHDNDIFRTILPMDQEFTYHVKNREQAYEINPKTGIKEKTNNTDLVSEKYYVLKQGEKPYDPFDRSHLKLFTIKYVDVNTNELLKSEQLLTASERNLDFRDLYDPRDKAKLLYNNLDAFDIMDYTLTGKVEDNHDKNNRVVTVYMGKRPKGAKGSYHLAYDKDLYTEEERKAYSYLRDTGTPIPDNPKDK
Briefly: S. pyogenes streptokinase expression inhibitors, potency, dose response, plasminogen activation absorbance, OD405 (AID 1914).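 Further: secreted streptokinase activity via plasminogen activation per viability signal from cell pellet.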 In kind it is functional, Streptococcus pyogenes M1 GAS.

In another assay the target is Genome polyprotein (dengue virus type 2, UniProt P29990). Briefly: Dengue-2 NS5 methyltransferase inhibitors, primary screen, biochemical, confirmation dose response (AID 588689). The class given is functional.
The target in assay [2] is Heat shock protein HSP 90-alpha (Homo sapiens, UniProt P07900). The class given is functional, organism-based.
Assay [3] deals with HEK293. As to the kind of experiment: cells. As to conditions: Homo sapiens.
The subject of assay [4] is HEK293. As to the kind of experiment: cells. As to conditions: Homo sapiens. The source holds these as a separate data set.
Assay [5] relates to Streptococcus sp. 'group A'. As to the kind of experiment: growth inhibition of control SK(-) GAS strain, dose response, counter-screen for streptokinase expression inhibitor project, luminescence, kanamycin, BacTiterGlo, confirmation (AID 1900). The class given is functional, organism-based.
Assay [6] deals with T2, Endoribonuclease toxin MazF (Escherichia coli K-12, UniProt P0AE70).
T2 sequence (P0AE70 whole entry): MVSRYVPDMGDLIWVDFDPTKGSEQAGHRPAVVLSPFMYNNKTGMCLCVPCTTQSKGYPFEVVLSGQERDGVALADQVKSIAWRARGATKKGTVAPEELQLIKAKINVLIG
Briefly: MazF toxin RNase activators, dose response, biochemical, fluorescence, single-stranded RNA substrate, uHTS hits (AID 588481). The class given is functional.

Assay [7] has as its target T2, Endoribonuclease toxin MazF. As to the kind of experiment: fluorescent RNA oligo signal without MazF, dose response, counter-screen for MazEF activator project, biochemical, fluorescence, single-stranded RNase substrate (AID 588502). The class given is functional.
The target of assay [8] is Dual specificity tyrosine-phosphorylation-regulated kinase 1A (Rattus norvegicus, UniProt Q63470). The class given is biochemical, Homo sapiens.
In assay [9] the target is Dual specificity protein kinase CLK1 (Homo sapiens, UniProt P49759). As to the kind of experiment: CLK1 kinase inhibitors, off-target check, dose response, selectivity assay for Dyrk1A inhibitor project, biochemical, cherry-picked samples (AID 588811).
Assay [10] has as its system HEK293. As to the kind of experiment: inhibitors of LMP1-driven NF-kB reporter, dose response, cell-based, HEK293, luciferase, cherry-pick (AID 588343). The class given is functional. Particulars: Homo sapiens.

Each structure is given as a SMILES string. Activity calls are given as the source filed them.

Sequence of CAAX prenyl protease 2 (Q9Y256 whole entry): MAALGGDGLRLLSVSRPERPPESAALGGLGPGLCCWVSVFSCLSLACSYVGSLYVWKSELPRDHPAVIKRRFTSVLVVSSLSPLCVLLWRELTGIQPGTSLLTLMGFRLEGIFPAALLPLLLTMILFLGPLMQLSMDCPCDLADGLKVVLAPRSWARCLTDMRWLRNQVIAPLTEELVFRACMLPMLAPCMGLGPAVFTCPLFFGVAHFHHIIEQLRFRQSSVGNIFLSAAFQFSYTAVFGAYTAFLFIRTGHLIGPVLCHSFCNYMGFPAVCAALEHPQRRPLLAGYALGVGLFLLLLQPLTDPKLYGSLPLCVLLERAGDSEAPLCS
Sequence of Beta-2 adrenergic receptor (P07550 whole entry): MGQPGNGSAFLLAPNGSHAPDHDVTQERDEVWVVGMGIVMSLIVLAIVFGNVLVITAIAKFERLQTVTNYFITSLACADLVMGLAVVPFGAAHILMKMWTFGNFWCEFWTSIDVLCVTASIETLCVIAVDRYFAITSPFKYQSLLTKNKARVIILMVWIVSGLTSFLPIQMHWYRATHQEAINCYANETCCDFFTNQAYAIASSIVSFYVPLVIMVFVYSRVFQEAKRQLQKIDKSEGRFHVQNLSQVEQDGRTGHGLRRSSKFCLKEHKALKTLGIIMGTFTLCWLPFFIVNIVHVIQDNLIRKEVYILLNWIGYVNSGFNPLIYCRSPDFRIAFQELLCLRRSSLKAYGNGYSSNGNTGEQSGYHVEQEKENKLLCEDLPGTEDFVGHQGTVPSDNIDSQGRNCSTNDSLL
Sequence of Genome polyprotein (P29990 2492-3391 limits assumed): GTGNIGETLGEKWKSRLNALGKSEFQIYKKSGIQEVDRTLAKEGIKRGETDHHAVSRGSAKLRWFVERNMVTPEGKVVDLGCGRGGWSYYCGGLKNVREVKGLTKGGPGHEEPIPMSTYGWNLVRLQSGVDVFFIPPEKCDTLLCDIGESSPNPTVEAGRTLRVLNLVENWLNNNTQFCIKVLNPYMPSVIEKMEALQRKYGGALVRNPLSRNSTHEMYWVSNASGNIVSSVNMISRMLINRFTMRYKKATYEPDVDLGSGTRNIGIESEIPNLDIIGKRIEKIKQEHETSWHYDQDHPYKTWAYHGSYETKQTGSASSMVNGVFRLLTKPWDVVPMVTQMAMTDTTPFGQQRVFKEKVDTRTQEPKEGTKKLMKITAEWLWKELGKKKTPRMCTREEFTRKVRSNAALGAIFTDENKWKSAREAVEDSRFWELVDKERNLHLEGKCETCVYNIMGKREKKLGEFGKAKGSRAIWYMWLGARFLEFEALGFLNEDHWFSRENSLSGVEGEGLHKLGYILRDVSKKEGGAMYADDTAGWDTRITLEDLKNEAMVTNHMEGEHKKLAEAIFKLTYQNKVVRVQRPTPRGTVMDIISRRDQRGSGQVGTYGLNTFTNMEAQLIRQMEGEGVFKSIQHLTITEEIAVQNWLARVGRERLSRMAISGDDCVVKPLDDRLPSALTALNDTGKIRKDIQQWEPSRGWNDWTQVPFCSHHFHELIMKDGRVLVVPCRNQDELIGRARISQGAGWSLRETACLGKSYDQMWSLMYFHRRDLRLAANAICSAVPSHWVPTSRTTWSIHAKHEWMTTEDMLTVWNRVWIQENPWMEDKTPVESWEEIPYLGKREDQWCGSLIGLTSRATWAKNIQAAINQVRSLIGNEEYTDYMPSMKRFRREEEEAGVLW
Sequence of Dual specificity protein kinase CLK1 (P49759 whole entry): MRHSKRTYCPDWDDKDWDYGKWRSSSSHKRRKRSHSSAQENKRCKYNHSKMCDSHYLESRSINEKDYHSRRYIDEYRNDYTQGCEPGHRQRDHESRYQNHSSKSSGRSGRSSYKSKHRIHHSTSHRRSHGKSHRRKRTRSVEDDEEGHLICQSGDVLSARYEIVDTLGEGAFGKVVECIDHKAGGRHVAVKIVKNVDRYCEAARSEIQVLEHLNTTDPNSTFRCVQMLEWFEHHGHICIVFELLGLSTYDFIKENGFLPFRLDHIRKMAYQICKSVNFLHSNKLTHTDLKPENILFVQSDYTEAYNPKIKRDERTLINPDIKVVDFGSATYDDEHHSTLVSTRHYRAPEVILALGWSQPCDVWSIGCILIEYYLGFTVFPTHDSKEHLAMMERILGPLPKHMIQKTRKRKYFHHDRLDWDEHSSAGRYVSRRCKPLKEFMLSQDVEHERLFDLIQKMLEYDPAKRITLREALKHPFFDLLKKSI
Sequence of Trypsin (P00761 whole entry): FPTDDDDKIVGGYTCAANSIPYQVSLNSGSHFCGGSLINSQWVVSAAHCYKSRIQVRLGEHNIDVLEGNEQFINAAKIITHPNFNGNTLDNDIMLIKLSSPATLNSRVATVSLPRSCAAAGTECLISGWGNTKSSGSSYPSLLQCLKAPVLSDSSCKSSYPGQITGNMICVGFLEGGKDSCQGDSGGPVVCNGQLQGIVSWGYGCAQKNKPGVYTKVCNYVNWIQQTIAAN

With `Cc1cc(C)c2nc(-c3ccco3)cc(C(=O)O)c2c1`, the AC50 at Trypsin is 10.9 µM (active); on CAAX prenyl protease 2, 15.3 µM (active).

As for `Nc1cc(N)nc(SCc2cc([N+](=O)[O-])cc3c2OCOC3)n1`, the EC50 in assay [1] is 1.18 µM (active).

Take `COC(=O)[C@@H]1[C@@H](C#N)C2(c3ccccc3-c3ccccc32)N(c2ccc(Cl)cc2)N1C#N`: the EC50 in the assay with Streptococcus was 19 µM (active); at Streptokinase A, 63.1 µM (active); in the assay on HEK293 [3] it was > 59.6 µM (inactive); with HEK293 [4], > 59.6 µM (inactive); in assay [5], 5.91 µM (active). Moreover, the IC50 on Genome polyprotein was 92.4 µM (active). In addition, the AC50 in assay [2] was 1.7 µM (active).

Regarding `CN(C)c1ccc(/C=N/N(CCC#N)C2=NS(=O)(=O)c3ccccc32)cc1`, the EC50 was > 99 µM (inactive) in assay [6] and 42.5 µM (inactive) in assay [7].

Take `COc1cccc(NC(=O)Nc2ccc3c(c2)N(C)C(=O)CS3)c1`: the values for the AC50 in [8] and in [9] were 5.3 µM (active) and 9.67 µM (active), respectively.

Regarding `COc1ccc2cc(-c3cc(C(=O)OCC(=O)Nc4c(C)n(C)n(-c5ccccc5)c4=O)c4ccccc4n3)ccc2c1`, the AC50 in the assay with HEK293 [10] was 1.07 µM (active).
